Here are results for 8 compounds from BindingDB's records for patent US10100058 (Gilead Sciences, 2018).

Each structure is given as a SMILES string.

Sequence of Calcium/calmodulin-dependent protein kinase type II subunit delta (Q13557 whole entry): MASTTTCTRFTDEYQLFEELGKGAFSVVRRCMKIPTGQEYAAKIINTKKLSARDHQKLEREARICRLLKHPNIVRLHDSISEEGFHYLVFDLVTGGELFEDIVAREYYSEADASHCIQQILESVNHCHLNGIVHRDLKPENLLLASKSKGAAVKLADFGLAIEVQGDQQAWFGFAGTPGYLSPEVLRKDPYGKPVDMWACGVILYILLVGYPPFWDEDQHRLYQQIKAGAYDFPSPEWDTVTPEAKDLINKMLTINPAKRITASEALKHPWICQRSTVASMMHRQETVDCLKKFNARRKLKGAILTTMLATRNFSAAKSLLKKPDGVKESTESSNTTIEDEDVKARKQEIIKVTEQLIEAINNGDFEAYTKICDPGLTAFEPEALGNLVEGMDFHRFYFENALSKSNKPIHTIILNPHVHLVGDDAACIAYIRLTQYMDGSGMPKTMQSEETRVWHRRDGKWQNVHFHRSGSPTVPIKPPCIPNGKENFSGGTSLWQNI

The test has as its target Calcium/calmodulin-dependent protein kinase type II subunit delta (Homo sapiens, UniProt Q13557). Put plainly: CaMKII delta Biochemical Assay. As to the method: The biochemical activity of recombinant CaMKIIδ was measured by monitoring the phosphorylation of a target peptide using Homogenous Time Resolved Fluorescence (HTRF) technology from CisBio Bioassays.
For `CCC(N)CNC(=O)c1ccnc(-c2cnn3ccc(-c4cccs4)nc23)c1` (stereo not drawn) [US10100058, Example 25], the IC50 was 8.62 nM.

`CCN(CC)[C@@H](CO)CNC(=O)c1ccnc(-c2cnn3ccc(-c4ccccc4)nc23)c1` [US10100058, Example 58]: the IC50 was determined as 3.35 nM. With `CC(C)(N)CNC(=O)c1ccnc(-c2cnn3ccc(-c4ccccc4)nc23)c1` [US10100058, Example 64] the figure was 99.9 nM. For the compound `CCN(CC)[C@@H](C)CNC(=O)c1cc(-c2cnn3ccc(-c4cccs4)nc23)nc(N2CC(NS(=O)(=O)Cc3ccon3)C2)c1` [US10100058, Example 175], the IC50 worked out at 0.24 nM.

As to `CCN(CC)[C@@H](C)CNC(=O)c1cc(-c2cnn3ccc(-c4cccs4)nc23)nc(N2CC[C@H]2C(=O)NCCO)c1` [US10100058, Example 297], the IC50 was determined as 0.33 nM. For the compound `CN(CCn1ccnc1)c1cc(C(=O)N2CC3CCC(C2)NC3)cc(-c2cnn3ccc(-c4cccs4)nc23)n1` (stereo not drawn) [US10100058, Example 321], the IC50 turned out to be 9.11 nM. With `COC1CN(c2cc(C(=O)N3CC[C@H](N)C3)cc(-c3cnn4ccc(-c5cccs5)nc34)n2)C1` [US10100058, Example 327], the IC50 is 9.25 nM. With `CCN(CC)[C@@H](C)CNC(=O)c1cc(OCCN(C)C)nc(-c2cnn3ccc(-c4cccs4)nc23)c1` [US10100058, Example 347], the IC50 turned out to be 0.1 nM.
